How the values were obtained:
[1] = test system: adults of Ctenocephalides felis; experiment: Test with cat fleas/oral uptake; type: in vivo; settings: after 28 h
Method: Test with Cat Fleas/Oral Uptake
• Test animals: adults of Ctenocephalides felis • Solvent: dimethyl sulphoxide (DMSO)
To produce a suitable formulation, a suitable solution of active compound is prepared from 20 mg of active compound and 1 ml of DMSO. 15 μl of this formulation are added to 3 ml of citrated cattle blood and stirred.
10 unfed adult fleas (Ctenocephalides felis, strain “Georgi”) are placed into a chamber (Ø3.2 cm) whose top and bottom are closed with gauze. A metal cylinder whose underside is covered with parafilm is placed onto the chamber. The cylinder contains 3 ml of blood/active compound formulation which can be taken up by the fleas through the parafilm membrane. Whereas the blood is warmed to 37° C., the temperature in the area of the flea chambers is adjusted to 25° C. Controls are mixed with the same volume of DMSO, without addition of a compound. The determinations are carried out in triplicate.
After 28 h, the mortality in % (=dead fleas) is determined.
Compounds which effect an at least 25% kill of the fleas within 28 h are judged to be effective.

[2] = test system: Boophilus microplus resistant (SP-resistant Parkhurst strain); experiment: Test with Boophilus microplus resistant (SP-resistant Parkhurst strain), injection, oviposition of fertile eggs; type: in vivo
Method: (§1) Test with Boophilus Microplus Resistant (SP—Resistant Parkhurst Strain)
(§2) • Test animals: adult females which have sucked themselves full • Solvent: dimethyl sulphoxide
20 mg of active compound are dissolved in 1 ml of dimethyl sulphoxide, more dilute concentrations are prepared by dilution in the same solvent.
The test is carried out in 5 replications. 1 μl of the solutions is injected into the abdomen, and the animals are transferred into dishes and kept in a climatized room. After 7 days, the activity is checked by examination for oviposition of fertile eggs. Eggs whose fertility is not visible from the outside are stored in glass tubes in a controlled-environment cabinet until the larvae have hatched. An activity of 100% means that no tick has produced any fertile eggs.

[3] = test system: Trichinella spiralis larvae; experiment: Trichinella spiralis in-vitro; type: cell-based; parameters: key: 0 means no activity; 1 means weak activity; 2 means good activity; 3 means full activity; settings: 5 days at 19° C.
Method: Trichinella spiralis In-vitro
• Test animals: Trichinella spiralis larvae • Solvent: dimethyl sulphoxide
Trichinella spiralis larvae are isolated from skeletal muscles and subcutaneous muscles of SPF/CFW1 mice and collected in aqueous 0.9% NaCl containing 20 μg of sisomycin/ml. Per determination, 20 larvae are incubated in 2 ml of a nutrient solution (20 g of Bacto Casitone/l, 10 g of yeast extract/l, 5 g of glucose/l, 0.8 g of KH2PO4/l, 0.8 g of K2HPO4; […] of sisomycin/ml and 1 μg of Canesten/ml; pH=7.2).
The incubation and the determination have been described in Martin et al., Pesticide Science (1996) 48, 343-349. 10 mg of the test compound are dissolved in 0.5 ml of the stated solvent, and such an amount of the resulting solution is added to the incubation medium that the desired concentration is reached. The controls contain only the solvent.
After an incubation time of 5 days at a temperature of 19° C., the experiment is terminated. The anthelmintic activity of a substance is categorized into 4 stages. 0 means no activity, 1 means weak activity, 2 means good activity and 3 means full activity (<50%, 50-75%, >75%, 100% of the larvae dead).

Lucilia cuprina larvae = experiment: Blowfly larvae test (development-inhibitory action); type: in vivo
Method: Blowfly Larvae Test (Development-Inhibitory Action)
• Test animals: Lucilia cuprina larvae • Solvent: dimethyl sulphoxide
(§3) 20 mg of active compound are dissolved in 1 ml of dimethyl sulphoxide, more dilute concentrations are prepared by dilution with distilled water.
About 20 Lucilia cuprina larvae are introduced into a test tube which contains about 1 cm^3 of horse meat and 0.5 ml of the preparation of active compound to be tested. After 24 hours and 48 hours, the efficacy of the preparation of active compound is determined. The test tubes are transferred into a beaker whose bottom is covered with sand. After a further 2 days, the test tubes are removed and the pupae are counted.
The efficacy of the preparation of active compound is assessed by the number of flies that have hatched after 1.5 times the period of development of an untreated control. 100% means that no flies have hatched; 0% means that all flies have hatched normally.

logP (pH2) = type: physicochemical
[4] = test system: Meloidogyne incognita egg/larvae; experiment: Meloidogyne test; type: in vivo; settings: active compound concentration 20 ppm; lettuce
Method: • Solvent: 8 parts by weight of acetone • Emulsifier: 1 part by weight of alkylaryl polyglycol ether
To produce a suitable preparation of active compound, 1 part by weight of active compound is mixed with the stated amounts of solvent and emulsifier, and the concentrate is diluted with water to the desired concentration.
Containers are filled with sand, solution of active compound, Meloidogyne incognita egg/larvae suspension and lettuce seeds. The lettuce seeds germinate and the plants develop. On the roots, galls are formed.
After the desired period of time, the nematicidal action is determined in % using gall formation as a measure. 100% means that no galls were found; 0% means that the number of galls on the treated plants corresponds to that of the untreated control.

[5] = test system: caterpillars of the army worm (Spodoptera frugiperda); experiment: Spodoptera frugiperda test; type: in vivo; settings: active compound concentration 0.1%; after 7 days
Method: Spodoptera frugiperda Test
(§4) • Solvent: 30 parts by weight of dimethylformamide • Emulsifier: 1 part by weight of alkylaryl polyglycol ether
(§5) To produce a suitable preparation of active compound, 1 part by weight of active compound is mixed with the stated amounts of solvent and emulsifier, and the concentrate is diluted with emulsifier-containing water to the desired concentration.
Cabbage leaves (Brassica oleracea) are treated by being dipped into the preparation of active compound of the desired concentration and are populated with caterpillars of the army worm (Spodoptera frugiperda) while the leaves are still moist.
After the desired period of time, the kill in % is determined. 100% means that all caterpillars have been killed; 0% means that none of the caterpillars have been killed.

[6] = test system: peach aphid (Myzus persicae); experiment: Myzus test; type: in vivo; settings: active compound concentration 0.1%; after 6 days
Method: as §4, §5
Cabbage leaves (Brassica oleracea) which are heavily infested by the peach aphid (Myzus persicae) are treated by being dipped into the preparation of active compound of the desired concentration.
After the desired period of time, the kill in % is determined. 100% means that all aphids have been killed; 0% means that none of the aphids have been killed.

[7] = test system: adult Musca domestica, Reichswald strain (OP, SP, carbamate-resistant); experiment: Test with flies (Musca domestica); type: in vivo; settings: active compound concentration 100 ppm
Method: Test with Flies (Musca domestica)
• Test animals: adult Musca domestics, Reichswald strain (OP, SP, carbamate-resistant) • Solvent: dimethyl sulphoxide
as §3
2 ml of this active compound preparation are pipetted onto filter paper discs (Ø9.5 cm) in petri dishes of corresponding dimensions. After the filter discs have been dried, 25 test animals are transferred into the petri dishes, which are then covered.
After 1, 3, 5, 24 and 48 hours, the activity of the active compound preparation is determined. 100% means that all flies have been killed; 0% means that none of the flies have been killed.

[8] = test system: Boophilus microplus resistant (SP-resistant Parkhurst strain); experiment: Test with Boophilus microplus resistant (SP-resistant Parkhurst strain), dipping; type: in vivo; settings: active compound concentration 100 ppm; dipped for 1 minute
Method: as §1, §2, §3
10 adult Boophilus microplus res. are dipped for 1 minute into the preparation of active compound to be tested. The animals are transferred into plastic beakers and kept in a climatized room, and the kill rate is then determined.
100% means that all ticks have been killed; 0% means that none of the ticks have been killed.

[9] = test system: larvae of the mustard beetle (Phaedon cochleariae); experiment: Phaedon larvae test; type: in vivo; settings: active compound concentration 0.1%; after 7 days
Method: as §4, §5
Cabbage leaves (Brassica oleracea) are treated by being dipped into the preparation of active compound of the desired concentration and are populated with larvae of the mustard beetle (Phaedon cochleariae) while the leaves are still moist.
After the desired period of time, the kill in % is determined. 100% means that all beetle larvae have been killed; 0% means that none of the beetle larvae have been killed.

[10] = test system: greenhouse red spider mite (Tetranychus urticae); experiment: Tetranychus test (OP-resistant/dip treatment); type: in vivo; settings: active compound concentration 0.1%; after 7 days
Method: Tetranychus Test (OP-Resistant/Dip Treatment)
as §4, §5
Bean plants (Phaseolus vulgaris) which are heavily infested by all stages of the greenhouse red spider mite (Tetranychus urticae) are dipped into a preparation of active compound of the desired concentration.
After the desired period of time, the effect in % is determined. 100% means that all spider mites have been killed; 0% means that none of the spider mites have been killed.

[11] = active compound concentration 20 ppm
[12] = active compound concentration 100 ppm
[13] = 0.8 μg per animal, injection, after 7 days
[14] = 4 μg per animal, injection, after 7 days
[15] = 20 μg per animal, injection, after 7 days
[16] = active compound concentration 4 ppm, injection, after 7 days
[17] = active compound concentration 20 ppm, injection, after 7 days

Row | SMILES | kill (mortality) [1, 11] [%] | kill (mortality) [1, 12] [%] | kill (no fertile eggs) [2, 13] [%] | kill (no fertile eggs) [2, 14] [%] | kill (no fertile eggs) [2, 15] [%] | kill (no fertile eggs) [2, 12] [%] | anthelmintic activity class (larvae dead) [3, 12] | kill (no flies hatched) (Lucilia cuprina larvae; [12]) [%] | logP (pH2) (logP (pH2)) | kill (no fertile eggs) [2, 16] [%] | kill (no fertile eggs) [2, 17] [%] | further results
1 | CC1SC(SCCC=C(F)F)=NS1(=O)=O (racemic) [Example 8] | 79 | 91 | 100 | 100 | 100 | 100 | no activity | 100 | – | – | – | –
2 | CC1SC(SCCCCC(F)=C(F)F)=NS1(=O)=O (racemic) [Example 9] | – | – | – | – | – | – | – | – | 3.24 | – | – | –
3 | CC1SC(SCCCCC=C(F)F)=NS1(=O)=O (racemic) [Example 10] | 83 | 95 | 100 | 100 | 100 | 100 | no activity | 100 | 3.31 | – | – | –
4 | O=S1(=O)CSC(SCCC(F)=C(F)F)=N1 [Example 1, 5-(4,4,3-trifluorobutenylthio)-1,3,4-dithiazoline 3,3-dioxide] | – | – | – | – | – | – | – | 100 | – | 100 | 100 | nematicidal action (activity) using gall formation as a measure [4]: 100%; melting point: 50 °C; kill (no flies hatched) (Lucilia cuprina larvae; [11]): 100%
5 | O=S1(=O)CSC(SCCC=C(F)F)=N1 [Example 2] | – | 100 | – | – | – | – | – | – | 2.24 | 100 | 100 | kill [5]: 100%; nematicidal action (activity) using gall formation as a measure [4]: 100%; kill [6]: 100%; kill [7]: 60%; kill [8]: 90%; kill [9]: 100%
6 | O=S1(=O)CSC(SCCCCC(F)=C(F)F)=N1 [Example 3] | – | – | – | – | – | – | – | 100 | 2.93 | 100 | 100 | anthelmintic activity class (larvae dead) ([3]; active compound concentration 10 ppm): weak activity (1 means weak activity); kill (no flies hatched) (Lucilia cuprina larvae; [11]): 100%
7 | O=S1(=O)CSC(SCCCCC=C(F)F)=N1 [Example 4] | – | 100 | – | – | – | – | no activity | – | 2.99 | 100 | 100 | kill [10]: 100%; kill [6]: 100%; kill [7]: 40%; kill [8]: 100%; kill [9]: 100%
8 | O=S1(=O)CCSC(SCCCCC=C(F)F)=N1 [Example 6] | 73 | 95 | 100 | 100 | 100 | 100 | no activity | 100 | – | – | – | –
9 | O=S1(=O)CCSC(SCCC=C(F)F)=N1 [Example 11] | – | – | 100 | 100 | 100 | – | no activity | – | – | – | – | –
10 | O=S1(=O)CCCSC(SCCC(F)=C(F)F)=N1 [Example 13] | – | – | 100 | 100 | 100 | – | – | – | – | – | – | –
11 | O=S1(=O)CCCSC(SCCCCC=C(F)F)=N1 [Example 16] | 89 | 91 | 100 | 100 | 100 | 100 | no activity | – | – | – | – | –

Reference: patent US6927215B2, “Heterocyclic fluoroalkenyl thioethers and the use thereof as pesticides (I)” (Bayer Cropscience AG, priority 2000, dated 2005)
